Data published in PMC7901699, “Challenging inflammatory process at molecular, cellular and in vivo levels via some new pyrazolyl thiazolones” (Journal of Enzyme Inhibition and Medicinal Chemistry, 2021).
“Also recorded” adds a separate entry of the source. Like-named read-outs stand apart in the source and are kept apart here.

Legend:
rat stomach [1] = conditions: in vivo, po, 5 mg/kg
15-LOX = molecular target: T1, 15-LOX (Glycine max, UniProt P08170); experiment: In vitro 15-LOX inhibition assay (lipoxygenase inhibitor screening kit, Cayman); format: biochemical; conditions: mean of three determinations
T1 construct: purchased Cayman chemicals 760700
T1 sequence (P08170 1-839): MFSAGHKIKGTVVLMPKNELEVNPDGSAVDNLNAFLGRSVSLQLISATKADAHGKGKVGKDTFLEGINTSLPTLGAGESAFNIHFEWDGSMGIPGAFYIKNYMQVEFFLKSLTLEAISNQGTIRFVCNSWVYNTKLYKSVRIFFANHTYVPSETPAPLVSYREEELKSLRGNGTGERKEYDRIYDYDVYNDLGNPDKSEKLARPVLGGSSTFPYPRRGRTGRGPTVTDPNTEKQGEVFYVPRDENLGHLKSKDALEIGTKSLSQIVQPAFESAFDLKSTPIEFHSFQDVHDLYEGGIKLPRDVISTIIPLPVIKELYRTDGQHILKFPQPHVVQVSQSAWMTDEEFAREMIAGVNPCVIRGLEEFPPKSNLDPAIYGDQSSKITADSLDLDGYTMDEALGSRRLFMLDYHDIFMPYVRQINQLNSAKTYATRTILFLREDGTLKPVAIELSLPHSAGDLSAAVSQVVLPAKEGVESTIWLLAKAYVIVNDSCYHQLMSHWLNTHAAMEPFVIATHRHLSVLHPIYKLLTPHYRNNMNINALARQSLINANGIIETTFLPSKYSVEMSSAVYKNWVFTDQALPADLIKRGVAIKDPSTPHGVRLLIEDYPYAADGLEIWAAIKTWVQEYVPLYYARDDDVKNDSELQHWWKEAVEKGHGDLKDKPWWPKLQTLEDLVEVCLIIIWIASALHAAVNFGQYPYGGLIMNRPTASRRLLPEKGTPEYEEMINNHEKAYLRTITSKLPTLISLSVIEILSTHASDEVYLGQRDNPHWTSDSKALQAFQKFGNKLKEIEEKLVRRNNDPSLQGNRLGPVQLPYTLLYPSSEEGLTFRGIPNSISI
Description: (§1) Both assays were carried out in compliance with the manufacturer’s instructions and in accordance to prior studies[29]^,[33].
(§2) IC50 values (μM) and selectivity indices (SI) were calculated.

IL-1β = IL-1β protein expression by Western blotting; format: cell-based, human; conditions: 100 μM compound; PMA 24 h then LPS 72 h; normalised to GAPDH
Description: THP-1 monocytes were exposed to 100 μM of the test compounds, activated with 25 nM PMA for 24 h followed by 100 ng/ml LPS for 72 h. At the end of the incubation period, cells were harvested, proteins were extracted and SDS-PAGE electrophoresis, blotting, and antibody probing were conducted as described previously. Primary rabbit polyclonal antibodies to IL-1β, procaspase-3, and GAPDH were obtained from Abcam (Cambridge, UK). Clarity Western ECL substrate (BioRad, Hercules, CA, USA) was used to obtain a chemiluminescence signal captured by a Chemidoc imaging system (BioRad, Hercules, CA, USA). Band density was estimated using ImageJ software (National Institutes of Health, Bethesda, MD) and normalised to the GAPDH band density as a loading control.

ovine COX-1 = molecular target: T2, ovine COX-1 (Ovis aries, UniProt P05979); experiment: In vitro COX-1 inhibition assay (colorimetric COX inhibitor screening kit, Cayman); format: biochemical; conditions: mean of three determinations
T2 construct: purchased Cayman Chemicals Inc. 560131
T2 sequence (P05979 25-600): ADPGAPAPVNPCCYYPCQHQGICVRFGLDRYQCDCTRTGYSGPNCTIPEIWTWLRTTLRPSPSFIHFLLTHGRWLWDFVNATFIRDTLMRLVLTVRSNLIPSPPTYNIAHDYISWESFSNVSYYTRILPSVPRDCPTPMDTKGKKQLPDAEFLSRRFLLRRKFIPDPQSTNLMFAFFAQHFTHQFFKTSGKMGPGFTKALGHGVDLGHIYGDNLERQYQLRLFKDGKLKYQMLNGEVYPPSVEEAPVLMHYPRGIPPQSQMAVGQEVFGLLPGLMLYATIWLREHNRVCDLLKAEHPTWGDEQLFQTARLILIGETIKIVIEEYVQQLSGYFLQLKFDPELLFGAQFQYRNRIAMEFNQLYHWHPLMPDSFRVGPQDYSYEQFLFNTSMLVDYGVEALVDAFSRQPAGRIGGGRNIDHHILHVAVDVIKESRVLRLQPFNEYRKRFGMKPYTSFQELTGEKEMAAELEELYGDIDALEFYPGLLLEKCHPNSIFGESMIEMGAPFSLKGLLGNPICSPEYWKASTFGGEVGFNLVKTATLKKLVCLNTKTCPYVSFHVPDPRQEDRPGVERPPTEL
Description: as §1, §2

THP-1 cells [2] = experiment: Monocyte-to-macrophage differentiation assay, M1 polarisation (PMA then LPS); format: cell-based, human; conditions: for IC50: Homo sapiens, THP-1, 6 h pre-incubation, PMA 25 nM 24 h then LPS 100 ng/ml 72 h, MTS, read-out: IC50 inhibition of THP-1 monocyte differentiation into M1 macrophages
Description: (§3) Monocytes were cultured and differentiated as described previously. THP-1 cells (human acute monocytic leukaemia lineage, American Type Culture Collection, Manassas, VA) were seeded at a density of 20 × 10^5 cells/ml. A set of cells were exposed to 25 nM of phorbol myristate-acetate (PMA, Calbiochem, Darmstadt, Germany) for 24 h to drive differentiation. Another set was similarly treated with PMA followed by 100 ng/ml of lipopolysaccharide (LPS, invivogen, San Diego, CA, USA) for 72 h. After incubation, the supernatant was aspirated and the density of the adherent cells was estimated using MTS colorimetric cell viability kit (Abcam, Cambridge, UK). The inhibitory actions of different compounds on the differentiation process were evaluated by pre-incubation with different concentrations of each compound for 6 h. Cell viability after treatment was normalised to the reading after PMA exposure following a 6-h incubation with DMSO. All experiments were conducted in triplicates. A positive control for the effect of COX1/COX2 inhibition on monocyte-to-macrophage differentiation was obtained by treatment with diclofenac. IC50 values for each compound were determined by non-linear regression as the best fit values of the log [inhibitor] vs. response curve using GraphPad Prism software.

[3] = system: PMA/LPS-stimulated THP-1 (M1 macrophages); experiment: Cytotoxicity assay on differentiated M1 macrophages (MTS); format: cell-based, human; conditions: PMA 24 h, LPS 24 h, then compound 24 h; up to 100 μM
Description: To confirm that the previous observations were a consequence of interference of the compounds with the differentiation process rather than a reduction in monocyte viability, THP-1 monocytes were incubated with different concentrations of the compound for 30 h. No difference in cell viability was detected. Moreover, the cytotoxic effects of the drugs on differentiated macrophages were evaluated. Following the incubation of THP-1 cells with 25 nM PMA for 24 h and 100 ng/ml LPS for 24 h, the differentiated macrophages were treated with different concentrations of the compounds for 24 h. Cell viability was assessed using MTS colorimetric cell viability kit (Abcam, Cambridge, UK).

rat stomach [4] = experiment: Gastric ulcerogenic activity and histopathological examination; conditions: stomach removed on 8th day of administration, 5 mg/kg oral
human recombinant COX-2 = molecular target: T3, human recombinant COX-2 (Homo sapiens, UniProt P35354); experiment: In vitro COX-2 inhibition assay (colorimetric COX inhibitor screening kit, Cayman); format: biochemical; conditions: for SI (COX-1/ COX-2): IC50 (COX-1)/IC50 (COX-2); for IC50: mean of three determinations
T3 construct: purchased Cayman Chemicals Inc. 560131
T3 sequence (P35354 18-604): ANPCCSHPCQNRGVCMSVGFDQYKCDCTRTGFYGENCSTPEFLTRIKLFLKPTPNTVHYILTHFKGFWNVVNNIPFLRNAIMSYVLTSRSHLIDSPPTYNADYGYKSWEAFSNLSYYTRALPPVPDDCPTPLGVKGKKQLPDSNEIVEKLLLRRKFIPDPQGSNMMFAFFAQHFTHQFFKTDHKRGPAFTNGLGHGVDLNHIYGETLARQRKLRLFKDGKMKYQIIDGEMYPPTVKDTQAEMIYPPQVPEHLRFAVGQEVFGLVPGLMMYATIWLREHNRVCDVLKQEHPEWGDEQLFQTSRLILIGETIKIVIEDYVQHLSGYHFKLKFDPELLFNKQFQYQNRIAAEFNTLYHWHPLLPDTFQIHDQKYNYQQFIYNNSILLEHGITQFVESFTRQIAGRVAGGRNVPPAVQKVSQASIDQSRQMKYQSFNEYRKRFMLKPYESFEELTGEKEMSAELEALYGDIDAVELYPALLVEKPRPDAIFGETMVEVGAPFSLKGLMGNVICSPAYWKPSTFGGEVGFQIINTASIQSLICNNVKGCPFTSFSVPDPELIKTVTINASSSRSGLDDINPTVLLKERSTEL
Description: as §1, §2

[5] = system: cotton pellet-induced granuloma; experiment: Cotton pellet-induced granuloma assay (chronic inflammation model); conditions: oral 5 mg/kg daily; pellets excised on 8th day; vs diclofenac sodium and celecoxib; 5 mg/kg
THP-1 cells [6] = experiment: Monocyte-to-macrophage differentiation assay, resting M0 macrophages (PMA only); format: cell-based, human; conditions: data not shown
Description: as §3

| Compound | Gross observation of isolated rat stomachs (rat stomach [1]) | Histopathological examination of stomach gastric layers (rat stomach [1]) | IC50 (15-LOX) | IL-1β expression in PMA/LPS-challenged THP-1 (IL-1β) | IC50 (ovine COX-1) | IC50 (THP-1 cells [2]) | Inhibition of THP-1 differentiation into M1 macrophages (in words) (THP-1 cells [2]; PMA then LPS, diclofenac as reference) | M1 macrophage cell viability [3] | Gross observation of isolated rat stomachs (rat stomach [4]) | Histopathological examination of stomach gastric layers (rat stomach [4]; H&E, 5 mg/kg) | SI (COX-1/ COX-2) (human recombinant COX-2) | IC50 (human recombinant COX-2) | Inhibition of cotton pellet granuloma weight (in words) [5] | IC50 for M0 macrophage differentiation (in words) (THP-1 cells [6]) |
| --- | --- | --- | --- | --- | --- | --- | --- | --- | --- | --- | --- | --- | --- | --- |
| Cc1ccc(-c2cc(C(F)(F)F)nn2-c2ccc(S(N)(=O)=O)cc2)cc1 [Celecoxib] | normal stomach texture | no ulceration with normal gastro-esophageal junction | – | – | – | – | – | – | – | – | – | – | – | – |
| O=C1N=C(N2CCOCC2)S/C1=C\c1cn(-c2ccccc2)nc1-c1ccccc1 [Compound 4, (Z)-5-((1,3-diphenyl-1H-pyrazol-4-yl)methylene)-2-morpholinothiazol-4(5H)-one] | – | – | 4.63 µM | attenuating IL-1β production | 11.3 µM | 11.3 µM | potent inhibitory effects on monocyte-to-macrophage differentiation; also recorded: higher potency compared to diclofenac | tended to slightly decrease | variable levels of hyperaemia without gross ulceration | esophago-gastric inflammation; also recorded: gastro-esophageal inflammatory infiltrates | 80 | 0.14 µM | – | – |
| COc1ccc(-c2nn(-c3ccccc3)cc2/C=C2\SC(N3CCOCC3)=NC2=O)cc1 [Compound 8, (Z)-5-((3-(4-methoxyphenyl)-1-phenyl-1H-pyrazol-4-yl)methylene)-2-morpholinothiazol-4(5H)-one] | – | – | 4.64 µM | attenuating IL-1β production | 12.4 µM | 347 µM | – | – | – | – | 113 | 0.11 µM | superior anti-inflammatory activity, when compared to diclofenac and celecoxib; also recorded: increased inhibition of granuloma weight in comparison to both celecoxib and diclofenac | – |
| O=C(O)Cc1ccccc1Nc1c(Cl)cccc1Cl [Diclofenac Na, Diclofenac sodium, reference compound] | – | – | – | – | – | 101 µM | – | – | normal stomach texture | – | – | – | – | comparable IC50 to that observed for the M1 macrophage differentiation |
